Results published in ChEMBL document CHEMBL1132505, “Allosteric modulators of the AMPA receptor: novel 6-substituted dihydrophthalazines” (1999).

How the values were obtained:
[1] = target: Glutamate receptor ionotropic, AMPA (Rattus norvegicus) (UniProt P19491+P19492+P19493+P19490); experiment: Inhibition of KA induced currents associated with activation of the AMPA subtype of glutamate receptors in cerebellar neurons at a concentration of 10 uM; format: protein-complex assay
Mus musculus [2] = experiment: In vivo anticonvulsant activity in mice using maximal electroshock (MES) assay; format: functional
Mus musculus [3] = species on record: Mus musculus; experiment: Reduced sedation using rotarod test in mouse; format: functional
Mus musculus [4] = experiment: In vivo anticonvulsant activity in mice using maximal electroshock (MES) assay; value ranges from 35-50 mg/kg; format: functional
Rattus norvegicus = experiment: In vivo anticonvulsant activity in rats using maximal electroshock (MES) assay; value ranges from 35-50 mg/kg; format: functional

inhibition [1] [%] | SMILES | ED50 (Mus musculus [2]) [mg/kg] | ED50 (Mus musculus [3]) [mg/kg] | ED50 (Mus musculus [4]) [mg/kg] | ED50 (Rattus norvegicus) [mg/kg]
55 | CCCNC(=O)N1N=C(c2ccc(N)cc2)c2cc(F)ccc2C1C (stereo unspecified) | – | – | – | –
62 | CCCCNC(=O)N1N=C(c2ccc(N)cc2)c2cc3c(cc2C1C)OCO3 (stereo unspecified) | – | – | 35 | 35
58 | CCCNC(=O)N1N=C(c2ccc(N)cc2)c2cc3c(cc2C1C)OCO3 (stereo unspecified) | – | – | 35 | 35

Further lines, the molecule ahead of its results:

SMILES | inhibition [1] [%] | ED50 (Mus musculus [2]) [mg/kg] | ED50 (Mus musculus [3]) [mg/kg] | ED50 (Mus musculus [4]) [mg/kg] | ED50 (Rattus norvegicus) [mg/kg]
CCCNC(=O)N1N=C(c2ccc(N)cc2)c2cc(OC)ccc2C1C (stereo unspecified) | 52 | 52 | 150 | – | –
CCCCNC(=O)N1N=C(c2ccc(N)cc2)c2cc(OC)ccc2C1C (stereo unspecified) | 50 | – | – | – | –
